One assay deals with T1, soybean lipoxygenase (Glycine max, UniProt P08170).
T1 construct: purchased Sigma
T1 sequence (P08170 1-839): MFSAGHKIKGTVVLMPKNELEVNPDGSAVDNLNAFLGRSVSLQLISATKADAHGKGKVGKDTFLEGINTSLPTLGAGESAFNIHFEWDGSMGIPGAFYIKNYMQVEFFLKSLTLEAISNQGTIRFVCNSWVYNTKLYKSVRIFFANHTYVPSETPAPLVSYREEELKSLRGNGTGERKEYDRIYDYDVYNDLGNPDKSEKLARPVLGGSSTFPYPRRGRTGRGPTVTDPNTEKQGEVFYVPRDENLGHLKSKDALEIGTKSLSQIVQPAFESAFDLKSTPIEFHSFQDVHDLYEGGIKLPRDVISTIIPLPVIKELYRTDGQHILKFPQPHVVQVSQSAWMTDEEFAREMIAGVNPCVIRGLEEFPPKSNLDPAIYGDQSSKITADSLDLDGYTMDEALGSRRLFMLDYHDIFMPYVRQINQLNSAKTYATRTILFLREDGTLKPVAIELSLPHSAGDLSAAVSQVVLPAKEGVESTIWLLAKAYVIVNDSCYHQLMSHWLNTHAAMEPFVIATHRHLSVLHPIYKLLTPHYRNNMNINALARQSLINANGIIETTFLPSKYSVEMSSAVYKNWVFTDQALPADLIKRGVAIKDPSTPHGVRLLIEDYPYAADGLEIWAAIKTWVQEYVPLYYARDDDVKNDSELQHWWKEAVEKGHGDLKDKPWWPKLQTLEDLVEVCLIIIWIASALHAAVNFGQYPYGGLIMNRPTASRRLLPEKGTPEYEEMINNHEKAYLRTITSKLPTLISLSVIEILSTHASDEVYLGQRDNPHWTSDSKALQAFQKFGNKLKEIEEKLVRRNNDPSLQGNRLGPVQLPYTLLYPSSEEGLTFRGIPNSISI
Briefly: Inhibition of soybean lipoxygenase. The class given is biochemical. The following applies: sodium linoleate 0.1 mM, read-out: Lipoxygenase inhibitory activity (IC50). As to the method: The substituted pteridines prepared were assayed for inhibition of soybean lipoxygenase (Table 1) (Supplementary Information). Many studies have used readily obtainable soybean lipoxygenase, which is a homologue of mammalian lipoxygenase and well examined. The availability of soybean LOX and its well-characterized crystal structure led to its use in this study.
Determination of soybean lipoxygenase inhibition
A solution in DMSO of each compound to be tested was incubated at room temperature with sodium linoleate (0.1 mM) and a solution of soybean lipoxygenase (EC 1.13.11.12) (1:9 x 10^4 w/v in saline, 0.2 mL, Sigma). The conversion of sodium linoleate to 13-hydroperoxylinoleic acid was monitored by observation at 234 nm and compared with the value of appropriate standard inhibitor (Table 1).
IC50 determinations. OriginPro 8 was used to determine IC50 values from the sigmoidal line fitted to a graph of log[concentration] against the average percentage inhibition from two independent experiments, with at least 6 different concentrations. The SEM is the calculated standard error in the IC50 value of the fitted line.

A short description of assay [1]: Reducing ability in DPPH assay. The following applies: compound 100 μM. As to the method: Previous work has shown that pterins, their dihydro- and their tetrahydro-derivatives can each be antioxidants or pro-oxidants, depending on the particular conditions. In the present study, several assays were used to assess in vitro antioxidant activity in order to obtain representative information; each method involves the generation of a different radical.
Determination of reducing activity using 1,1-diphenyl-2-picrylhydrazyl radical (DPPH)
To a solution of DPPH in absolute ethanol was added an equal volume of the compound to be tested dissolved in DMSO (20 µL). From a stock solution (10 mM) was prepared a final solution of 100 µM for evaluation of the compounds. The absorbance at 517 nm was recorded after 20 and 60 min at room temperature (Table 2).
A general note: The DPPH test is a chemical assay of radical scavenging.

Assay [2] is described as follows: Competition with DMSO for hydroxyl radicals. The following applies: compound at 100 µM, Fe3+/ascorbic acid, DMSO 33 mM. The protocol:
Competition of the novel pteridine derivatives with dimethyl sulfoxide for hydroxyl radicals was measured. […] The majority of the derivatives were excellent scavengers of hydroxyl radicals with activity higher than the reference compound 6-hydroxy-2,5,7,8-tetramethylchroman-2-carboxylic acid (Trolox).
Competition of pteridine derivatives with DMSO for hydroxyl radicals
Hydroxyl radicals generated by the Fe^3+/ascorbic acid system were detected by determination of formaldehyde produced from the oxidation of DMSO, according to the procedure of Nash. The reaction mixture comprised ethylenediaminetetracetic acid (EDTA) (0.1 mM), Fe^3+ (167 μM), DMSO (33 mM) in phosphate buffer (50 mM, pH 7.4), ascorbic acid (10 mM) and the compound to be tested at 100 µM. After incubation at 37 °C for 30 min the mixture was quenched with aqueous trichloroacetic acid (17% w/v) (Table 2) and the percentage competition of the tested compounds with DMSO for hydroxyl radicals was determined (Table 2).

Broadly, the IC50 is the midpoint of a concentration-inhibition curve. `CN1CCN(c2nc(NCc3cccs3)c3nccnc3n2)CC1` [Compound 18f, 2-(4-methylpiperazin-1-yl)-N-(thiophen-2-ylmethyl)pteridin-4-amine]: the IC50 on soybean lipoxygenase amounted to 55 ± 0.8 µM. For the same compound, the “RA (%) 100μM 20 min” value in assay [1] (20 min) is recorded as 6%. Further, in assay [1] (60 min), the “RA (%) 100μM 60 min” value is given as 4%. Moreover, the “Hydroxyl radicals scavenged (%)” value in assay [2] came out at 96%.

These data come from PMC5462101 (Future medicinal chemistry, 2015).
